# Numbered stars: 1 amine (or outer) side, 2 acyl side, 3 side chain; on linkers, the order of the positions; unused ones are H or OH. Square brackets hold non-standard residues; d marks the D form. Side chains are listed from the residue outwards. Peptide text beside a SMILES is read from it. * marks the point of attachment. C20 diacid = O=C(O)CCCCCCCCCCCCCCCCCCC(=O)*; αMePhe(2-F) = C[C@](N)(Cc1ccccc1F)C(=O)O; γGlu = O=C(O)[C@H](CCC(=O)[*:2])N[*:1]; αMeF = C[C@](N)(Cc1ccccc1)C(=O)O; αMeL = CC(C)C[C@](C)(N)C(=O)O; AEEA = NCCOCCOCC(=O)O; Aib = CC(C)(N)C(=O)O
# Columns and labels:
# human GLP-1R = human GLP-1R (Homo sapiens, UniProt P43220); experiment: [125I]-GLP-1 binding (SPA), human GLP-1 receptor; parameters: expressed in transfected cells; crude membranes; conditions: read-out: hGLP1R Ki, (nM) (SEM, n)
# Chain of human GLP-1R (P43220 24-463): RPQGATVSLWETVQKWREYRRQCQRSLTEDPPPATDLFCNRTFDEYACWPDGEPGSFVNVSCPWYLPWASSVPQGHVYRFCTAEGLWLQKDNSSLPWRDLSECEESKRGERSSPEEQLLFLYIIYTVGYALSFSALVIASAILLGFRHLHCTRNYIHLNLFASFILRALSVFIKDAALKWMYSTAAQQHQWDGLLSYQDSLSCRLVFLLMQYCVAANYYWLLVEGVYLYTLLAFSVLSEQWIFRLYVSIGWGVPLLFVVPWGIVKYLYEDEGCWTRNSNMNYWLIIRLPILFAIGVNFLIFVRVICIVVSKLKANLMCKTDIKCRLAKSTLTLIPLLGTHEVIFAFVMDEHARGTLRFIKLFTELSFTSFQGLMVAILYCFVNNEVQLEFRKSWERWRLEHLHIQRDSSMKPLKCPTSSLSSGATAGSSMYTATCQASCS
# Outline: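 Assay buffer: HEPES 25 mM, pH 7.4, CaCl2 2.5 mM, MgCl2 1 mM, with EDTA-free protease inhibitors. Receptor came from crude cell membranes prepared by homogenization and centrifugation at 4° C. IC50s came from four-parameter fits (maximum, minimum, IC50, Hill slope) and were expressed as Ki geometric means with SEM.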
# [1] = target: T1, gastric inhibitory peptide receptor (GIPR) (Homo sapiens, UniProt P48546); experiment: cAMP pharmacological functional assay in presence of casein, hGIPR; format: cell-based; conditions: HEK293 cells expressing hGIPR, 0.1% Casein, geometric mean; read-out: hGIPR cAMP Rel EC50 nM (SEM, n)
# T1 sequence (P48546 22-466): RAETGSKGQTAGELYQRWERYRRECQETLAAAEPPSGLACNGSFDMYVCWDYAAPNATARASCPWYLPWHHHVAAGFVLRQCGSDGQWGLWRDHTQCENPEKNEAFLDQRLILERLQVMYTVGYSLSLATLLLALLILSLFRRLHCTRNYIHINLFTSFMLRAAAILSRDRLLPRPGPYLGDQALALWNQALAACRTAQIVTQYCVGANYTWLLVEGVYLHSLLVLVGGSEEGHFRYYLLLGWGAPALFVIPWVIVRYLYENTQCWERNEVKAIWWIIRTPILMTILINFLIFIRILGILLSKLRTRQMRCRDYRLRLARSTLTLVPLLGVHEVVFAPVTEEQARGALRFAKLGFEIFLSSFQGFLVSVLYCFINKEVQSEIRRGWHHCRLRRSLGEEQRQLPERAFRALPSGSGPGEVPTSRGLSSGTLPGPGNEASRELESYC
# human Gcg receptor = target: T2, human Gcg receptor (Homo sapiens, UniProt P47871); experiment: [125I]-Glucagon binding (SPA), human Gcg receptor; conditions: read-out: hGLcgR Ki, nM (SEM, n)
# T2 construct: expressed in transfected cells; crude membranes
# T2 sequence (P47871 26-477): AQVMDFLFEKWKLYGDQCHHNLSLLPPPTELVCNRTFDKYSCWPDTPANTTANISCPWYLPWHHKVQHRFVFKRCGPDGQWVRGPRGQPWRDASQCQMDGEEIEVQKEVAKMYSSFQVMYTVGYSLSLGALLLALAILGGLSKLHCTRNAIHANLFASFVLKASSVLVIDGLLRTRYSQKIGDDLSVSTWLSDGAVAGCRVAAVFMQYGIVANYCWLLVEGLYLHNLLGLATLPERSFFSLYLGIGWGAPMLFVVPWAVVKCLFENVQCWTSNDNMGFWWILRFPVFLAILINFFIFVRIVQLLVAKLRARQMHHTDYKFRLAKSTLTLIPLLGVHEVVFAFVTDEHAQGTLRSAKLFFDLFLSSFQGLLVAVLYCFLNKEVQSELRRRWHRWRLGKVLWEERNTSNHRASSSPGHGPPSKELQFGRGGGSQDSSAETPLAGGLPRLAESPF
# Outline: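 Cell pellets were lysed in hypotonic Tris buffer, pH 7.5, homogenized, and spun at low then high speed to give crude membranes. Ki was derived from the fitted IC50.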
# [2] = target: human GLP-1 receptor (GLP-1R) (Homo sapiens, UniProt P43220); experiment: cAMP pharmacological functional assay in presence of casein, hGLP-1R; format: cell-based; conditions: HEK293 cells expressing hGLP-1R, 0.1% Casein, geometric mean; read-out: hGLP1R cAMP Rel EC50 nM (SEM, n)
# Chain of human GLP-1 receptor (GLP-1R) (P43220 24-463): as the sequence (P43220 24-463) above
# human GIP receptor = target: T3, human GIP receptor (Homo sapiens, UniProt P48546); experiment: [125I]-GIP binding (SPA), human GIP receptor; conditions: read-out: hGIPR Ki, nM (SEM, n)
# T3 construct: expressed in transfected cells; crude membranes
# T3 sequence (P48546 22-466): T1 sequence (P48546 22-466)
smiles,measurement,setting,value
CC[C@H](C)[C@H](NC(=O)[C@H](CC(C)C)NC(=O)[C@H](Cc1ccc(O)cc1)NC(=O)[C@H](CCC(=O)O)NC(=O)[C@@H](NC(=O)[C@H](Cc1ccccc1)NC(=O)[C@H](C)NC(=O)C(C)(C)NC(=O)[C@H](CCC(N)=O)NC(=O)[C@H](C)NC(=O)[C@H](CCCCNC(=O)COCCOCCNC(=O)COCCOCCNC(=O)CC[C@H](NC(=O)CCCCCCCCCCCCCCCCCCC(=O)O)C(=O)O)NC(=O)[C@H](CCC(=O)O)NC(=O)[C@H](CC(=O)O)NC(=O)[C@H](CC(C)C)NC(=O)[C@](C)(CC(C)C)NC(=O)[C@@H](NC(=O)[C@H](CO)NC(=O)[C@H](Cc1ccc(O)cc1)NC(=O)[C@H](CC(=O)O)NC(=O)[C@H](CO)NC(=O)[C@@H](NC(=O)[C@](C)(Cc1ccccc1)NC(=O)[C@@H](NC(=O)CNC(=O)[C@H](CCC(=O)O)NC(=O)C(C)(C)NC(=O)[C@@H](N)Cc1ccc(O)cc1)[C@@H](C)O)[C@@H](C)O)[C@@H](C)CC)[C@@H](C)CC)C(=O)N[C@@H](CCC(=O)O)C(=O)NCC(=O)NCC(N)=O [Example 100] (H-Y[Aib]EGT[αMeF]TSDYSI[αMeL]LDEK([AEEA-AEEA-γGlu-C20 diacid])AQ[Aib]AFIEYLIEGG-NH2; N-terminus assumed),Ki,human GLP-1R,4.13 nM
same,EC50,[1],0.12 nM
same,Ki,human Gcg receptor,44 nM
same,EC50,[2],0.079 nM
same,Ki,human GIP receptor,0.115 nM
CC[C@H](C)[C@H](NC(=O)[C@H](CC(C)C)NC(=O)[C@H](Cc1ccc(O)cc1)NC(=O)[C@H](CCC(=O)O)NC(=O)[C@@H](NC(=O)[C@H](Cc1ccccc1)NC(=O)[C@H](C)NC(=O)C(C)(C)NC(=O)[C@H](CCC(N)=O)NC(=O)[C@H](C)NC(=O)[C@H](CCCCNC(=O)COCCOCCNC(=O)COCCOCCNC(=O)CC[C@H](NC(=O)CCCCCCCCCCCCCCCCCCC(=O)O)C(=O)O)NC(=O)[C@H](CCC(=O)O)NC(=O)[C@H](CC(=O)O)NC(=O)[C@H](CC(C)C)NC(=O)[C@](C)(CC(C)C)NC(=O)[C@@H](NC(=O)[C@H](CO)NC(=O)[C@H](Cc1ccc(O)cc1)NC(=O)[C@H](CC(=O)O)NC(=O)[C@H](CO)NC(=O)[C@@H](NC(=O)[C@](C)(Cc1ccccc1)NC(=O)[C@@H](NC(=O)CNC(=O)[C@H](CCC(=O)O)NC(=O)C(C)(C)NC(=O)[C@@H](N)Cc1ccccc1)[C@@H](C)O)[C@@H](C)O)[C@@H](C)CC)[C@@H](C)CC)C(=O)N[C@@H](CCC(=O)O)C(=O)NCC(=O)NCC(=O)N1CCC[C@H]1C(=O)N[C@@H](CO)C(=O)N[C@@H](CO)C(=O)NCC(=O)N[C@@H](C)C(=O)N1CCC[C@H]1C(=O)N1CCC[C@H]1C(=O)N1CCC[C@H]1C(=O)N[C@@H](CO)C(N)=O [Example 119] (H-F[Aib]EGT[αMeF]TSDYSI[αMeL]LDEK([AEEA-AEEA-γGlu-C20 diacid])AQ[Aib]AFIEYLIEGGPSSGAPPPS-NH2),Ki,human GLP-1R,9.87 nM
same,EC50,[1],0.216 nM
same,Ki,human Gcg receptor,30.6 nM
same,EC50,[2],0.0913 nM
same,Ki,human GIP receptor,0.0925 nM
CC[C@H](C)[C@H](NC(=O)[C@H](CC(C)C)NC(=O)[C@H](Cc1ccc(O)cc1)NC(=O)[C@H](CCC(=O)O)NC(=O)[C@@H](NC(=O)[C@H](Cc1ccccc1)NC(=O)[C@H](C)NC(=O)C(C)(C)NC(=O)[C@H](CCC(N)=O)NC(=O)[C@H](C)NC(=O)[C@H](CCCCNC(=O)COCCOCCNC(=O)COCCOCCNC(=O)CC[C@H](NC(=O)CCCCCCCCCCCCCCCCCCC(=O)O)C(=O)O)NC(=O)[C@H](CCCCN)NC(=O)[C@H](CC(=O)O)NC(=O)[C@H](CC(C)C)NC(=O)[C@](C)(CC(C)C)NC(=O)[C@@H](NC(=O)[C@H](CO)NC(=O)[C@H](Cc1ccc(O)cc1)NC(=O)[C@H](CC(=O)O)NC(=O)[C@H](CO)NC(=O)[C@@H](NC(=O)[C@H](Cc1ccccc1)NC(=O)[C@@H](NC(=O)CNC(=O)[C@H](CCC(=O)O)NC(=O)C(C)(C)NC(=O)[C@@H](N)Cc1c[nH]cn1)[C@@H](C)O)[C@@H](C)O)[C@@H](C)CC)[C@@H](C)CC)C(=O)N[C@@H](CCC(=O)O)C(=O)NCC(=O)NCC(=O)N1CCC[C@H]1C(=O)N[C@@H](CO)C(=O)N[C@@H](CO)C(=O)NCC(=O)N[C@@H](C)C(=O)N1CCC[C@H]1C(=O)N1CCC[C@H]1C(=O)N1CCC[C@H]1C(=O)N[C@@H](CO)C(N)=O [Example 53] (H-H[Aib]EGTFTSDYSI[αMeL]LDKK([AEEA-AEEA-γGlu-C20 diacid])AQ[Aib]AFIEYLIEGGPSSGAPPPS-NH2; N-terminus assumed),Ki,human GLP-1R,1.23 nM
same,EC50,[1],0.628 nM
same,Ki,human Gcg receptor,216 nM
same,EC50,[2],0.0339 nM
same,Ki,human GIP receptor,0.188 nM
CC[C@H](C)[C@H](NC(=O)[C@H](CC(C)C)NC(=O)[C@H](Cc1ccc(O)cc1)NC(=O)[C@H](CO)NC(=O)[C@@H](NC(=O)[C@H](Cc1ccccc1)NC(=O)[C@H](CCC(=O)O)NC(=O)C(C)(C)NC(=O)[C@H](CCC(N)=O)NC(=O)[C@H](C)NC(=O)[C@H](CCCCNC(=O)COCCOCCNC(=O)COCCOCCNC(=O)CC[C@H](NC(=O)CCCCCCCCCCCCCCCCCCC(=O)O)C(=O)O)NC(=O)[C@H](CCC(=O)O)NC(=O)[C@H](CC(=O)O)NC(=O)[C@H](CC(C)C)NC(=O)[C@](C)(CC(C)C)NC(=O)[C@@H](NC(=O)[C@H](CO)NC(=O)[C@H](Cc1ccc(O)cc1)NC(=O)[C@H](CC(=O)O)NC(=O)[C@H](CO)NC(=O)[C@@H](NC(=O)[C@](C)(Cc1ccccc1F)NC(=O)[C@@H](NC(=O)CNC(=O)[C@H](CCC(=O)O)NC(=O)C(C)(C)NC(=O)[C@@H](N)Cc1ccc(O)cc1)[C@@H](C)O)[C@@H](C)O)[C@@H](C)CC)[C@@H](C)CC)C(=O)N[C@@H](CCC(=O)O)C(=O)NCC(=O)NCC(=O)N1CCC[C@H]1C(=O)N[C@@H](CO)C(=O)N[C@@H](CO)C(=O)NCC(=O)N[C@@H](C)C(=O)N1CCC[C@H]1C(=O)N1CCC[C@H]1C(=O)N1CCC[C@H]1C(=O)N[C@@H](CO)C(N)=O [Example 150] (H-Y[Aib]EGT[αMePhe(2-F)]TSDYSI[αMeL]LDEK([AEEA-AEEA-γGlu-C20 diacid])AQ[Aib]EFISYLIEGGPSSGAPPPS-NH2),Ki,human GLP-1R,30.5 nM
same,EC50,[1],0.0511 nM
same,Ki,human Gcg receptor,63.2 nM
same,EC50,[2],0.0575 nM
same,Ki,human GIP receptor,0.0649 nM
CC[C@H](C)[C@H](NC(=O)[C@H](CC(C)C)NC(=O)[C@H](Cc1ccc(O)cc1)NC(=O)[C@H](CCC(=O)O)NC(=O)[C@@H](NC(=O)[C@H](Cc1ccccc1)NC(=O)[C@H](C)NC(=O)C(C)(C)NC(=O)[C@H](CCC(N)=O)NC(=O)[C@H](C)NC(=O)[C@H](CCCCNC(=O)COCCOCCNC(=O)COCCOCCNC(=O)CC[C@H](NC(=O)CCCCCCCCCCCCCCCCCCC(=O)O)C(=O)O)NC(=O)[C@H](CCCCN)NC(=O)[C@H](CC(=O)O)NC(=O)[C@H](CC(C)C)NC(=O)[C@](C)(CC(C)C)NC(=O)[C@@H](NC(=O)[C@H](CO)NC(=O)[C@H](Cc1ccc(O)cc1)NC(=O)[C@H](CC(=O)O)NC(=O)[C@H](CO)NC(=O)[C@@H](NC(=O)[C@H](Cc1ccccc1)NC(=O)[C@@H](NC(=O)CNC(=O)[C@H](CCC(=O)O)NC(=O)C(C)(C)NC(=O)[C@@H](N)Cc1ccc(O)cc1)[C@@H](C)O)[C@@H](C)O)[C@@H](C)CC)[C@@H](C)CC)C(=O)N[C@@H](CCC(=O)O)C(=O)NCC(=O)NCC(=O)N1CCC[C@H]1C(=O)N[C@@H](CO)C(=O)N[C@@H](CO)C(=O)NCC(=O)N[C@@H](C)C(=O)N1CCC[C@H]1C(=O)N1CCC[C@H]1C(=O)N1CCC[C@H]1C(=O)N[C@@H](CO)C(N)=O [Example 20],Ki,human GLP-1R,3.3 nM
same,EC50,[1],0.0556 nM
same,Ki,human Gcg receptor,228 nM
same,EC50,[2],0.117 nM
same,Ki,human GIP receptor,0.0849 nM

# — patent US12252524B2, “GIP/GLP1 co-agonist compounds” (Eli Lilly and Company, priority 2018, dated 2025)
